Each block holds one compound with its values, some of them ahead of it.
Key:
Experiment in all cases: competitive isoTOP-ABPP
Type in all cases: binding
[1] = target: T1, DNMT1 DNA (cytosine-5)-methyltransferase 1 (Homo sapiens, UniProt P26358); conditions: 50 uM, 231 sol, in vitro; for R value (DMSO/fragment) for probe 1 labeling: P26358_K45
T1 construct: isoTOP-ABPP experiments performed in cell lysates (in vitro); endogenous in cells; host or cells: soluble proteome of human cancer cell lines (MDA-MB-231; Ramos and Jurkat also prepared)
Outline: (§1)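 Lysate + fragment (50 μM activated ester / 100 μM guanidinylating agent) or DMSO → 0.1 mM STP-alkyne, 1 h, RT → CuAAC to TEV tags (compound light, DMSO heavy) → LC-MS. R = heavy/light MS1 area; liganded lysine if R≥4.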

RTN4 Reticulon-4 = target: T2, RTN4 Reticulon-4 (Homo sapiens, UniProt Q9NQC3); conditions: 50 uM, in vitro; for R value (DMSO/fragment) for probe 1 labeling: Q9NQC3_K1104; for R value (DMSO/fragment) for probe 1 labeling / isoTOP-ABPP reactivity ratio at lysine Q9NQC3_K1104: 231 sol
T2 construct: endogenous in cells; host or cells: MDA-MB-231 lysate
T2 sequence (Q9NQC3 1-1192): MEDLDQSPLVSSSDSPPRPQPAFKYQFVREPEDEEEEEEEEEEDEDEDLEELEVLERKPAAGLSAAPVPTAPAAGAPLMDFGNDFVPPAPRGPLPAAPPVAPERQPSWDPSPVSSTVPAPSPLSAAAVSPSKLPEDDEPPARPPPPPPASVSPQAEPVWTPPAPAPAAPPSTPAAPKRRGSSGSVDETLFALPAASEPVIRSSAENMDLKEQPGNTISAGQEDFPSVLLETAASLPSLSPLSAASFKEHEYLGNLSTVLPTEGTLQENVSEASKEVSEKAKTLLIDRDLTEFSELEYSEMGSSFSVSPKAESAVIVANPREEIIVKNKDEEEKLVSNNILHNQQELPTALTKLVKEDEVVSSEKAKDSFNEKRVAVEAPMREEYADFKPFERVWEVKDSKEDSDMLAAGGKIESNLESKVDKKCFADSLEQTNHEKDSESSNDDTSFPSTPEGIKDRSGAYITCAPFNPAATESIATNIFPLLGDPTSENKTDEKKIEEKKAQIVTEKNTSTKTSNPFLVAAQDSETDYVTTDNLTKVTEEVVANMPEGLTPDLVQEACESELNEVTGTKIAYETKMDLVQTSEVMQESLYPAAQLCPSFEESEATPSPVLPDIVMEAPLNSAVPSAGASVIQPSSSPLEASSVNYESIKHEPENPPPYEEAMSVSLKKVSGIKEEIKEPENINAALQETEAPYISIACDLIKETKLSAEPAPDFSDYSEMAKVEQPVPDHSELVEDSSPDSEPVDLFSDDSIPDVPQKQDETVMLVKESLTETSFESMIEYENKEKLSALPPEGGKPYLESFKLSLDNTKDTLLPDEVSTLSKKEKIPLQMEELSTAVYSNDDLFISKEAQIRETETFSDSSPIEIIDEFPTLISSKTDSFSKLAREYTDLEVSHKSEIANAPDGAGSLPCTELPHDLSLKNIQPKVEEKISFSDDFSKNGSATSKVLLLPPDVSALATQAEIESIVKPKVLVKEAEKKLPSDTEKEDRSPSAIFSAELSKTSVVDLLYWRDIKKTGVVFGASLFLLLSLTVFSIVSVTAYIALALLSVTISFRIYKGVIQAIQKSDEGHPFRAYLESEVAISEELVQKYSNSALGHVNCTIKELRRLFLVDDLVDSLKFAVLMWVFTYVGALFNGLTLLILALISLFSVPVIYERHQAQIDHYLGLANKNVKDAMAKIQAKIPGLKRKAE
Outline: as §1

TTR Transthyretin = target: T3, TTR Transthyretin (Homo sapiens, UniProt P02766); conditions: for R value (DMSO/fragment) for probe 1 labeling: P02766_K35; for R value (DMSO/fragment) for probe 1 labeling / isoTOP-ABPP reactivity ratio at lysine P02766_K35 / isoTOP-ABPP ratio (R) at liganded lysine P02766_K35: 50 uM, in vitro; for R value (DMSO/fragment) for probe 1 labeling / isoTOP-ABPP reactivity ratio at lysine P02766_K35: 231 sol; for isoTOP-ABPP ratio (R) at liganded lysine P02766_K35: sol, 231
T3 construct: isoTOP-ABPP experiments performed in cell lysates (in vitro); endogenous in cells; host or cells: MDA-MB-231 soluble lysate
Outline: as §1

[2] = target: T4, IMPDH1 Inosine-5-monophosphate dehydrogenase 1 (Homo sapiens, UniProt P20839); conditions: 50 uM, 231 sol, in vitro
T4 construct: isoTOP-ABPP experiments performed in cell lysates (in vitro); endogenous in cells; host or cells: soluble proteome of human cancer cell lines (MDA-MB-231; Ramos and Jurkat also prepared)
Outline: as §1

T1 sequence (P26358 whole entry, the tested form may be a part): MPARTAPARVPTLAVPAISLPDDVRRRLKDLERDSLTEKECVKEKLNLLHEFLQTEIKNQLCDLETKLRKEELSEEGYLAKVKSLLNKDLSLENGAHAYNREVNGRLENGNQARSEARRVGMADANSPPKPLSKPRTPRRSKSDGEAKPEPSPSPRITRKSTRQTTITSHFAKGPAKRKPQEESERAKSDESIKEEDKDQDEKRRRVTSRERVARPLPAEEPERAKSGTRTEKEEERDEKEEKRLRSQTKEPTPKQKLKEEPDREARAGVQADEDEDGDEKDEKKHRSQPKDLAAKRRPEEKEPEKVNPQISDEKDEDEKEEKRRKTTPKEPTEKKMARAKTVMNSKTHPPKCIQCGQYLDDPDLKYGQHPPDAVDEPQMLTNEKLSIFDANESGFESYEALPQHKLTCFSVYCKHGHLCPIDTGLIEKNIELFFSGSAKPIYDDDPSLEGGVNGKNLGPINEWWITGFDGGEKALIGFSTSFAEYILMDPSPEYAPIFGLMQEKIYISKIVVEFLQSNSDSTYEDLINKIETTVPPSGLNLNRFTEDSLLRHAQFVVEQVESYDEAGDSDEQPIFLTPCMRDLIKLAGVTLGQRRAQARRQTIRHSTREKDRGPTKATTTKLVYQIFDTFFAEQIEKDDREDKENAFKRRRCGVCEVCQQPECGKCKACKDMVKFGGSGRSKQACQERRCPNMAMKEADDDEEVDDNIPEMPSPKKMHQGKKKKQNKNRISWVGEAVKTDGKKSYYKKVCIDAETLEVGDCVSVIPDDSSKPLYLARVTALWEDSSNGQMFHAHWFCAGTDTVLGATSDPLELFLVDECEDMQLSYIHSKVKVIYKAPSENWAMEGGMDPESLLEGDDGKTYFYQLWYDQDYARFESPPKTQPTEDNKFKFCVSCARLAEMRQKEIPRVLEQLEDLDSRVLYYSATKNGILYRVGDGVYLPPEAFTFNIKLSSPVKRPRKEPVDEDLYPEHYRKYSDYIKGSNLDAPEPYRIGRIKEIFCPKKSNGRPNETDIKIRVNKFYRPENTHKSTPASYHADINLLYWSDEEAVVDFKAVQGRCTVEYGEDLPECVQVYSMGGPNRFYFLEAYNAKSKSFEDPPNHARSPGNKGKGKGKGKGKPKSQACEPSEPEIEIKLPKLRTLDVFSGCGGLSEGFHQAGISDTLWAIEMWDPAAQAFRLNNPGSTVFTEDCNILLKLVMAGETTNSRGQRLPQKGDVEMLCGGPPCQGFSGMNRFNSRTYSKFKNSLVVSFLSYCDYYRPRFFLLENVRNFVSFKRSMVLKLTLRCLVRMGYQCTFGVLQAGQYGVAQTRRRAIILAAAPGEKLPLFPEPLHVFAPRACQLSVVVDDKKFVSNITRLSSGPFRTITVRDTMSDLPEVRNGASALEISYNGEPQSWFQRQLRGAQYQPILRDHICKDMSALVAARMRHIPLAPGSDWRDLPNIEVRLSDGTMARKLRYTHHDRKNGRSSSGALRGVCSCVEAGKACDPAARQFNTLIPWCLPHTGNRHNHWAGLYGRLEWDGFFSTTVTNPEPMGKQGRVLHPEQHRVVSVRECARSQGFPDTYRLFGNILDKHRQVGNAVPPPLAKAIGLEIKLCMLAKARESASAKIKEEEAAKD
T4 sequence (P20839 whole entry): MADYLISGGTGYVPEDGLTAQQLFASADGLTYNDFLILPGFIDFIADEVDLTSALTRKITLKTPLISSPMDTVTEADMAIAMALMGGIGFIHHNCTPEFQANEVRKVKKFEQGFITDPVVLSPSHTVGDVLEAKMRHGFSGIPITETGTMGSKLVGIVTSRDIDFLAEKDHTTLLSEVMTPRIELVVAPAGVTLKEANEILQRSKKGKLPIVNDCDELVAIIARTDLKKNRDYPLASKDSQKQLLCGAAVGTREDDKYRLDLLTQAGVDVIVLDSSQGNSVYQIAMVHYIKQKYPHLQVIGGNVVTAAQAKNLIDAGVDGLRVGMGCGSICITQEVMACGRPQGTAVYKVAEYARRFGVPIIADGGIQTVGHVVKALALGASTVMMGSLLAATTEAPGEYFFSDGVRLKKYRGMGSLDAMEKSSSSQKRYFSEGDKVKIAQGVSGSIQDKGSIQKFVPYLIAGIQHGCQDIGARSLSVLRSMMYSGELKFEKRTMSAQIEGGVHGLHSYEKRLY

SMILES: O=C(Oc1c(F)c(F)c(F)c(F)c1F)c1cc(C(F)(F)F)cc(C(F)(F)F)c1 [fragment 21, Pentafluorophenyl 3,5-bis(trifluoromethyl)benzoate]
- R value (DMSO/fragment) for probe 1 labeling [1]: 1.4
- R value (DMSO/fragment) for probe 1 labeling (RTN4 Reticulon-4): 2.5
- R value (DMSO/fragment) for probe 1 labeling (TTR Transthyretin): 2.6

SMILES: O=C(Oc1c(F)c(F)c(F)c(F)c1F)C1CCN(C(=O)OCc2ccccc2)CC1 [fragment 24, 1-Benzyl 4-(pentafluorophenyl) piperidine-1,4-dicarboxylate]
- isoTOP-ABPP reactivity ratio at lysine Q9NQC3_K1104 (RTN4 Reticulon-4): 2.3

SMILES: O=C(Oc1ccc([N+](=O)[O-])cc1[N+](=O)[O-])C(c1ccccc1)c1ccccc1 [fragment 30, 2,4-Dinitrophenyl 2,2-diphenylacetate]
- isoTOP-ABPP reactivity ratio at lysine P20839_K208 [2]: 1.6
- isoTOP-ABPP reactivity ratio at lysine P02766_K35 (TTR Transthyretin): 1.5

SMILES: O=C(Oc1ccc([N+](=O)[O-])cc1[N+](=O)[O-])c1cc(C(F)(F)F)cc(C(F)(F)F)c1 [fragment 31, 2,4-Dinitrophenyl 3,5-bis(trifluoromethyl)benzoate]
- isoTOP-ABPP reactivity ratio at lysine Q9NQC3_K1104 (RTN4 Reticulon-4): 6.1
- isoTOP-ABPP reactivity ratio at lysine P02766_K35 (TTR Transthyretin): 16.1
- targeting of K35 (TTR Transthyretin; TTR K35): preferentially targeted

SMILES: Cn1cc(CC(=O)Oc2ccc([N+](=O)[O-])cc2[N+](=O)[O-])c2ccccc21 [fragment 32, 2,4-Dinitrophenyl 2-(1-methyl-1H-indol-3-yl)acetate]
- isoTOP-ABPP reactivity ratio at lysine P26358_K45 [1]: 1.0
- isoTOP-ABPP reactivity ratio at lysine Q9NQC3_K1104 (RTN4 Reticulon-4): 20.0
- isoTOP-ABPP reactivity ratio at lysine P02766_K35 (TTR Transthyretin): 3.1

SMILES: O=C(Oc1ccc([N+](=O)[O-])cc1[N+](=O)[O-])C1CCN(C(=O)OCc2ccccc2)CC1 [fragment 34, 1-Benzyl 4-(2,4-dinitrophenyl) piperidine-1,4-dicarboxylate]
- isoTOP-ABPP ratio (R) at liganded lysine P02766_K35 (TTR Transthyretin): 2.2

SMILES: O=C(Oc1ccc([N+](=O)[O-])cc1[N+](=O)[O-])c1ccc2ccccc2n1 [fragment 35, 2,4-Dinitrophenyl quinoline-2-carboxylate]
- isoTOP-ABPP ratio (R) at liganded lysine Q9NQC3_K1104 (RTN4 Reticulon-4; sol, 231): 6.0
- isoTOP-ABPP ratio (R) at liganded lysine P02766_K35 (TTR Transthyretin): 15.6

Now from value to compound:

- R value (DMSO/fragment) for probe 1 labeling [1]: 7.3
- R value (DMSO/fragment) for probe 1 labeling (RTN4 Reticulon-4): 2.4
- R value (DMSO/fragment) for probe 1 labeling (TTR Transthyretin): 1.4
SMILES: O=C(Oc1c(F)c(F)c(F)c(F)c1F)C(c1ccccc1)c1ccccc1 [fragment 20, Pentafluorophenyl 2,2-diphenylacetate]

- R value (DMSO/fragment) for probe 1 labeling [1]: 0.9
- R value (DMSO/fragment) for probe 1 labeling (TTR Transthyretin): 2.6
SMILES: Cn1cc(CC(=O)Oc2c(F)c(F)c(F)c(F)c2F)c2ccccc21 [fragment 22, Pentafluorophenyl 2-(1-methyl-1H-indol-3-yl)acetate]

- R value (DMSO/fragment) for probe 1 labeling (RTN4 Reticulon-4): 3.3
- R value (DMSO/fragment) for probe 1 labeling (TTR Transthyretin): 1.0
SMILES: COc1cc(CCC(=O)Oc2c(F)c(F)c(F)c(F)c2F)cc(OC)c1OC [fragment 23, Pentafluorophenyl 3-(3,4,5-trimethoxyphenyl)propanoate]

- isoTOP-ABPP reactivity ratio at lysine P26358_K45 [1]: 0.9
SMILES: O=C(Oc1c(F)c(F)c(F)c(F)c1F)c1ccc2ccccc2n1 [fragment 25, Pentafluorophenyl quinoline-2-carboxylate]

- isoTOP-ABPP reactivity ratio at lysine Q9NQC3_K1104 (RTN4 Reticulon-4): 5.3
SMILES: O=C(CCc1coc2cc(F)ccc2c1=O)Oc1c(F)c(F)c(F)c(F)c1F [fragment 26, Pentafluorophenyl 3-(7-fluoro-4-oxo-4H-chromen-3-yl)propanoate]

- isoTOP-ABPP reactivity ratio at lysine Q9NQC3_K1104 (RTN4 Reticulon-4): 1.0
SMILES: CCn1cc(C(=O)Oc2c(F)c(F)c(F)c(F)c2F)c(=O)c2ccc(C)nc21 [fragment 28, Pentafluorophenyl 1-ethyl-7-methyl-4-oxo-1,4-dihydro-1,8-naphthyridine-3-carboxylate]

From US20210255193A1, “LYSINE REACTIVE PROBES AND USES THEREOF” (The Scripps Research Institute, priority 2017, published 2021)
